Experimental data reported in patent US20150247179A1 (Les Laboratoires Servier, priority 2013, published 2015).
Like-named read-outs stand apart in the source and are kept apart here.

How the values were obtained:
[1] = human
Procedure: (§1) Each active ingredient was incubated at 0.1 μM at 37° C. […] The reaction is initiated by addition of NADPH 1 mM. The incubation is monitored in kinetic form. At the incubation timepoints of 7 min, 17 min, 30 min and then 60 min, an incubation aliquot (100 μL) is sampled and the enzymatic reaction is stopped by adding to that aliquot a to volume of solvent (100 μL of methanol) which is placed in ice for 10 minutes.
(§2) At each incubation timepoint, the active ingredient is quantified by high-performance liquid chromatography (HPLC) coupled with mass spectrometry (MS).

[2] = tested on: CYP1A2
Procedure: as §1, §2

[3] = target: T1, CYP2B6 (Homo sapiens, UniProt P20813)
T1 sequence (P20813 1-491): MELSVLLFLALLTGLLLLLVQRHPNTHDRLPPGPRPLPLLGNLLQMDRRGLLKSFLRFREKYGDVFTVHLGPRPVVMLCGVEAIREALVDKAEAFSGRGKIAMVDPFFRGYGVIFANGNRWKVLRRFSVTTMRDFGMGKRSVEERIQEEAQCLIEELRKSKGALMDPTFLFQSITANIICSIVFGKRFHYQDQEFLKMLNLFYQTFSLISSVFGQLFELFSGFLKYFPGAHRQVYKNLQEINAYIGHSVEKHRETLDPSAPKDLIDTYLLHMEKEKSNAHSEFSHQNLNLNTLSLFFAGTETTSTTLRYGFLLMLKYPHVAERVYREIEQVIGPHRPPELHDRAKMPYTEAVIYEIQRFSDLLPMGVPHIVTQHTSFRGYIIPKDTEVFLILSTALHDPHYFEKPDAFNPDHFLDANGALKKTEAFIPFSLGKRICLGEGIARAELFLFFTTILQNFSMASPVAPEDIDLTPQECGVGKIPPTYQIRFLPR
Procedure: as §1, §2

[4] = target: T2, CYP2C8 (Homo sapiens, UniProt P10632)
T2 sequence (P10632 1-490): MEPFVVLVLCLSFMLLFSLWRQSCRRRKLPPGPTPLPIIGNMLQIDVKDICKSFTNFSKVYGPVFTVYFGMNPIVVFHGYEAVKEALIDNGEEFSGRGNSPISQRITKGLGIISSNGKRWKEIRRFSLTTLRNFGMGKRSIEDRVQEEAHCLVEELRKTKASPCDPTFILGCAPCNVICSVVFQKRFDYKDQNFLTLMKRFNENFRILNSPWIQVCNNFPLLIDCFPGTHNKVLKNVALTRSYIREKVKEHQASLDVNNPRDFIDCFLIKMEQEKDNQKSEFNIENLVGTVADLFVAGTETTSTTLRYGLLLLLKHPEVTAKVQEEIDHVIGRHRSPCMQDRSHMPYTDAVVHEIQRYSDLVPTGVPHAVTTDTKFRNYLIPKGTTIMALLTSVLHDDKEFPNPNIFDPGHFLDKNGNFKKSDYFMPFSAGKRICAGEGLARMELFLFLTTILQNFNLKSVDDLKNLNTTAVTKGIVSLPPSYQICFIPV
Procedure: as §1, §2

[5] = target: CYP2C9 (Homo sapiens, UniProt P11712)
Procedure: as §1, §2

[6] = target: T3, CYP2D6 (Homo sapiens, UniProt P10635)
Procedure: as §1, §2

[7] = target: T4, CYP3A4 (Homo sapiens, UniProt P08684); conditions: bortezomib 2 μM; human liver microsomes; cited from earlier work
Target sequence in this assay (P08684 whole entry): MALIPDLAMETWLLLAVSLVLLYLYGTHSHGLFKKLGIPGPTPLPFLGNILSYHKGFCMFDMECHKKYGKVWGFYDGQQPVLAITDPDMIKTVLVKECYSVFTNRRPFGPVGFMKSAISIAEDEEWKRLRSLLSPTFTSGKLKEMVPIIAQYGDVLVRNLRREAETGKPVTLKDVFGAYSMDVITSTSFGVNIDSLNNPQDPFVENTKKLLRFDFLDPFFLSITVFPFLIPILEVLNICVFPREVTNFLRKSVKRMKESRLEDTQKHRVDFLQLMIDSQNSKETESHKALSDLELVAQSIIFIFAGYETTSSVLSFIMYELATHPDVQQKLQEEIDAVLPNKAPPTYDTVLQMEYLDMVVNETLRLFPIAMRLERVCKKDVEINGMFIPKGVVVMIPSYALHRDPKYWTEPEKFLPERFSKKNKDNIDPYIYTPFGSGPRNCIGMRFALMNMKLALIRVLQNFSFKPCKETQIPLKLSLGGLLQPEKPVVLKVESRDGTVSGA

[8] = target: T3, CYP2D6; conditions: mirtazapine 2.5 to 1000 μM; human recombinant enzyme model; cited from earlier work
[9] = target: T4, CYP3A4; conditions: mirtazapine 2.5 to 1000 μM; human recombinant enzyme model; cited from earlier work
Target sequence in this assay (P08684 whole entry): as above

[10] = target: T4, CYP3A4
Procedure: as §1, §2
Target sequence in this assay (P08684 2-503): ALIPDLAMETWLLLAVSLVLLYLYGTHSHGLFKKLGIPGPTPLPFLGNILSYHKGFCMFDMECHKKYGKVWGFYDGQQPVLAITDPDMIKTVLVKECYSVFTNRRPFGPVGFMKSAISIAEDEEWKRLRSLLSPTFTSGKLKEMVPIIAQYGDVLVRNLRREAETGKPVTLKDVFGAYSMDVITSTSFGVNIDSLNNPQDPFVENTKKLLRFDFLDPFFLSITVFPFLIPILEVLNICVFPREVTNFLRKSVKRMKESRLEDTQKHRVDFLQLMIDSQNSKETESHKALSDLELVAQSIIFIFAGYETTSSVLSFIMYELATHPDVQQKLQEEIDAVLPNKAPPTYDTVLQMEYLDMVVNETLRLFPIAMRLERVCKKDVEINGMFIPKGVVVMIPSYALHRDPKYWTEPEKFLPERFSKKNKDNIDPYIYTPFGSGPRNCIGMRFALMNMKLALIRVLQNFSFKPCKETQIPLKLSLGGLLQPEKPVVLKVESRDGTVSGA

[11] = target: T1, CYP2B6; conditions: in a pool of human liver; cited from earlier work
[12] = target: T4, CYP3A4; conditions: healthy volunteers; itraconazole 100 mg; loperamide 4 mg; cited from earlier work
Target sequence in this assay (P08684 whole entry): as the sequence (P08684 whole entry) above

[13] = target: T4, CYP3A4; conditions: healthy volunteer; ritonavir 600 mg; loperamide 16 mg; cited from earlier work
Target sequence in this assay (P08684 whole entry): as above

Chain of CYP2C9 (P11712 whole entry): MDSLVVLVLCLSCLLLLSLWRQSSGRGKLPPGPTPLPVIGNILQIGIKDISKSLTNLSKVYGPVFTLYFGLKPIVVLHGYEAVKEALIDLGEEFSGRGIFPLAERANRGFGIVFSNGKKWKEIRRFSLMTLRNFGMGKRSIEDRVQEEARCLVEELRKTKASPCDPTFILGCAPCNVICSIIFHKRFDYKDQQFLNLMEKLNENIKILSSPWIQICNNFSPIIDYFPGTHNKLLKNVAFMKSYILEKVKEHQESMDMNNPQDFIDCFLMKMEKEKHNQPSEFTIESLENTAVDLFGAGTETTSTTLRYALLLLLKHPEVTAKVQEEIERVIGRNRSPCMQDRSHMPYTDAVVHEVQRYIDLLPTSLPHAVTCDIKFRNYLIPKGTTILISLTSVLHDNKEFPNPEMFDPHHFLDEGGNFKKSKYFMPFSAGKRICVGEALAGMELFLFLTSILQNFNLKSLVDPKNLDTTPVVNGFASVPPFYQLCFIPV
T3 sequence (P10635 whole entry): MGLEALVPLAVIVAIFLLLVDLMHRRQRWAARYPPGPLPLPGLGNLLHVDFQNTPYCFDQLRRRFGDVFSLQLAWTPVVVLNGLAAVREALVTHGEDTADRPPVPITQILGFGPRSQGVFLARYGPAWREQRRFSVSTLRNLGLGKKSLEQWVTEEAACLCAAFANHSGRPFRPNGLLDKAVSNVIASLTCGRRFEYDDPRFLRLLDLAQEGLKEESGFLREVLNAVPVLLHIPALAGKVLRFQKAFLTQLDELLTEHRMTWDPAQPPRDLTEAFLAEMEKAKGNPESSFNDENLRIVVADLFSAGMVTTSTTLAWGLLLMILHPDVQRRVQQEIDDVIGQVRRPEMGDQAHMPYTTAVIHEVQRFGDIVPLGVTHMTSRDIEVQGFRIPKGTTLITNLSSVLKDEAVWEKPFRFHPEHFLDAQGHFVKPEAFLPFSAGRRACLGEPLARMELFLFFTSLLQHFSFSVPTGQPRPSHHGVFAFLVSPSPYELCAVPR

| intrinsic clearance in the presence of control microsomes [1] | inhibition of intrinsic clearance = % involvement of CYP1A2 in the oxidative metabolism (kit of isolated microsomes) [2] | inhibition of intrinsic clearance = % involvement of CYP2B6 in the oxidative metabolism (kit of isolated microsomes) [3] | inhibition of intrinsic clearance = % involvement of CYP2C8 in the oxidative metabolism (kit of isolated microsomes) [4] | inhibition of intrinsic clearance = % involvement of CYP2C9 in the oxidative metabolism (kit of isolated microsomes) [5] | inhibition of intrinsic clearance = % involvement of CYP2D6 in the oxidative metabolism (kit of isolated microsomes) [6] | inhibition of intrinsic clearance = % involvement of CYP3A4 in the oxidative metabolism (kit of isolated microsomes) [10] | Structure (SMILES) | inhibition of metabolism by anti-CYP 3A4 monoclonal antibody = % involvement of CYP3A4, expected data (Uttamsingh et al.) [7] [%] | % involvement of CYP2D6 in the metabolism, expected data (Störmer et al.) [8] [%] | % involvement of CYP3A4 in the metabolism, expected data (Störmer et al.) [9] [%] | % involvement of CYP2B6 in the metabolism, expected data (Obach et al.) [11] [%] | increase in exposure, factor [12] | increase in exposure, factor [13] |
| --- | --- | --- | --- | --- | --- | --- | --- | --- | --- | --- | --- | --- | --- |
| 6.9-11 ml/min/g of proteins | No significant inhibition | No significant inhibition | No significant inhibition | No significant inhibition | No significant inhibition | – | CC(C)C[C@H](NC(=O)[C@H](Cc1ccccc1)NC(=O)c1cnccn1)B(O)O [bortezomib] | 79 | – | – | – | – | – |
| 3.9-7.8 ml/min/g of proteins | – | No significant inhibition | No significant inhibition | No significant inhibition | – | – | CN1CCN2c3ncccc3Cc3ccccc3C2C1 (centres unmarked) [mirtazapine] | – | 39 | 23 | – | – | – |
| 52.5-70.5 ml/min/g of proteins | – | – | No significant inhibition | No significant inhibition | – | No significant inhibition | CN[C@H]1CC[C@@H](c2ccc(Cl)c(Cl)c2)c2ccccc21 [sertraline] | – | – | – | 60 | – | – |
| – | – | – | – | – | – | – | CN(C)C(=O)C(CCN1CCC(O)(c2ccc(Cl)cc2)CC1)(c1ccccc1)c1ccccc1 [loperamide] | – | – | – | – | 3.8 | 2.65 |
